Experiments:
[1] = target: T1, human M1 receptor (hCHRM1) (Homo sapiens, UniProt P11229); test: Measurement of M1 receptor positive allosteric modulator (M1PAM) activity, calcium fluorescence with acetylcholine at EC20; type: cell-based; settings: for activity (%) at 10 μM: 10 μM test compound, 100% = 1 μM acetylcholine, 0% = DMSO; for EC50: CHO-K1 cells expressing hCHRM1, acetylcholine at EC20 (final 0.8-1.0 nM), read-out: IP value (inflection point in the concentration-dependent curve)
T1 construct: expressed in transfected cells; host or cells: CHO-K1
T1 sequence (P11229 1-460): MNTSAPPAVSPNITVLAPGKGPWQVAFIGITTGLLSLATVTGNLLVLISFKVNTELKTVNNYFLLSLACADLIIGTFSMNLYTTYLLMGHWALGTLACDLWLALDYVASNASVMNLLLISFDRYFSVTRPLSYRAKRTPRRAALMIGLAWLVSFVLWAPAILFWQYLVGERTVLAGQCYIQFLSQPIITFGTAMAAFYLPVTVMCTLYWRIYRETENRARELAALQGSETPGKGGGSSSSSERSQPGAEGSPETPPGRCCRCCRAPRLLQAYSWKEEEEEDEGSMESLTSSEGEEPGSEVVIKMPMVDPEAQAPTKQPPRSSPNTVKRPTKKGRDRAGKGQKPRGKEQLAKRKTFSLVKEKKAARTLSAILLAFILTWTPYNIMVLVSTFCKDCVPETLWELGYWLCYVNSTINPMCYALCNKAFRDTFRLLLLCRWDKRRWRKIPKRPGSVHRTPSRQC
Method: Measurement of M1 Receptor Positive Allosteric Modulator (M1PAM) Activity
The activity of a test compound in the presence of acetylcholine at EC20 concentration (final concentration 0.8-1.0 nM), which affords an action corresponding to about 20% of the maximum activity, was measured as PAM activity. The method is as follows. CHO-K1 cells stably expressing a human M1 receptor (hCHRM1) were plated on a 384-well black clear bottom plate (BD Falcon) at 5,000 cells/well, and cultured in an incubator at 37° C., 5% CO2 for 1 day. The medium in the cell plate was removed, and assay buffer A containing calcium indicator (Recording medium (DOJINDO LABORATORIES), 0.1% BSA (Wako Pure Chemical Industries, Ltd.), 2.5 μg/mL Fluo-4 AM (DOJINDO LABORATORIES), 0.08% Pluronic F127 (DOJINDO LABORATORIES), 1.25 mM probenecid (DOJINDO LABORATORIES)) was added at 30 μL/well. The cells were left standing in the incubator at 37° C., 5% CO2 for 30 min, and further left standing at room temperature for 30 min. A test compound prepared by diluting with assay buffer B (HBSS (Invitrogen), 20 mM HEPES (Invitrogen), 0.1% BSA) containing 3.2-4.0 nM acetylcholine was added at 10 μL/well, and the fluorescence was measured by FDSS/μCELL (Hamamatsu Photonics K.K.) for 1 min every for 1 second. With the definition that the amount of change in the fluorescence on addition of acetylcholine (final concentration 1 μM) is 100% and that on addition of DMSO instead of a test compound is 0%, the activity (%) of the test compound was calculated, and the inflection point in the concentration-dependent curve of the test compound was calculated as IP values.

Male SD rats = test: Rat defecation experiment; type: in vivo; settings: mean ± standard error
Method: Rat Defecation Experiment
Male SD rats (5-6 weeks old) were used after an acclimation period for about 1 week. A test drug (1 mg/kg or 3 mg/kg) was suspended in 0.5% methylcellulose solution and orally administered at a volume of 5 mL/kg, and the number of feces 2 hr later was counted. Only 0.5% methylcellulose was administered to a solvent administration group.

## Cn1cc(-c2ccc(C(F)c3cc(C(=O)N[C@H]4CCOC[C@@H]4O)nc4ccoc34)cc2)nn1 (single isomer, unassigned) [Example 55, 1,5-anhydro-2,3-dideoxy-3-(((7-(fluoro(4-(1-methyl-1H-1,2,3-triazol-4-yl)phenyl)methyl)furo[3,2-b]pyridin-5-yl)carbonyl)amino)-L-threo-pentitol]
[1]
  activity (%) at 10 μM: 107%
  EC50: 0.63 nM

## Cn1cc(-c2ccc(Cc3cc(C(=O)N[C@H]4CCOC[C@@H]4O)nc4ccoc34)cc2)nn1 [Example 20, 1,5-anhydro-2,3-dideoxy-3-(((7-(4-(1-methyl-1H-1,2,3-triazol-4-yl)benzyl)furo[3,2-b]pyridin-5-yl)carbonyl)amino)-L-threo-pentitol]
[1]
  activity (%) at 10 μM: 98%
  EC50: 0.88 nM
Male SD rats; 1 mg/kg oral
  number of feces 2 hr later: 10.6 ± 1.3
Male SD rats; 3 mg/kg oral
  number of feces 2 hr later: 12.1 ± 1.1

## O=C(N[C@H]1CCOC[C@@H]1O)c1cc(Cc2ccc(-n3cccn3)cc2)c2c(n1)CCO2 [Example 22, 1,5-anhydro-2,3-dideoxy-3-(((7-(4-(1H-pyrazol-1-yl)benzyl)-2,3-dihydrofuro[3,2-b]pyridin-5-yl)carbonyl)amino)-L-threo-pentitol]
[1]
  activity (%) at 10 μM: 106%
  EC50: 1.7 nM

## Cn1cc(-c2ccc(Cc3cc(C(=O)N[C@H]4CCOC[C@@H]4O)nc4c3OCC4)cc2)nn1 [Example 31, 1,5-anhydro-2,3-dideoxy-3-(((7-(4-(1-methyl-1H-1,2,3-triazol-4-yl)benzyl)-2,3-dihydrofuro[3,2-b]pyridin-5-yl)carbonyl)amino)-L-threo-pentitol]
[1]
  activity (%) at 10 μM: 101%
  EC50: 1.4 nM
Male SD rats; 1 mg/kg oral
  number of feces 2 hr later: 10.0 ± 1.4

## Cn1cc(-c2ccc(Cc3cc(C(=O)N[C@H]4CCOC[C@@H]4O)nc4ccoc34)cn2)cn1 [Example 36, 1,5-anhydro-2,3-dideoxy-3-(((7-((6-(1-methyl-1H-pyrazol-4-yl)pyridin-3-yl)methyl)furo[3,2-b]pyridin-5-yl)carbonyl)amino)-L-threo-pentitol]
[1]
  activity (%) at 10 μM: 96%
  EC50: 1.5 nM

## Cn1cc(-c2ccc(Cc3cc(C(=O)N[C@H]4CCOC[C@@H]4O)nc4c3OCC4)cc2)cn1 [Example 44, 1,5-anhydro-2,3-dideoxy-3-(((7-(4-(1-methyl-1H-pyrazol-4-yl)benzyl)-2,3-dihydrofuro[3,2-b]pyridin-5-yl)carbonyl)amino)-L-threo-pentitol]
[1]
  activity (%) at 10 μM: 105%
  EC50: 1.5 nM

## Cn1cnc(-c2ccc(Cc3cc(C(=O)N[C@H]4CCOC[C@@H]4O)nc4c3OCC4)cc2)c1 [Example 74, 1,5-anhydro-2,3-dideoxy-3-(((7-(4-(1-methyl-1H-imidazol-4-yl)benzyl)-2,3-dihydrofuro[3,2-b]pyridin-5-yl)carbonyl)amino)-L-threo-pentitol]
[1]
  activity (%) at 10 μM: 108%
  EC50: 1.5 nM

## COCCNC(=O)c1ccc(Cc2cc(C(=O)N[C@H]3CCOC[C@@H]3O)nc3c2OCC3)cc1F [Example 76, 1,5-anhydro-2,3-dideoxy-3-(((7-(3-fluoro-4-((2-methoxyethyl)carbamoyl)benzyl)-2,3-dihydrofuro[3,2-b]pyridin-5-yl)carbonyl)amino)-L-threo-pentitol]
[1]
  activity (%) at 10 μM: 109%
  EC50: 3.5 nM
Male SD rats; 1 mg/kg oral
  number of feces 2 hr later: 8.3 ± 0.8
Male SD rats; 3 mg/kg oral
  number of feces 2 hr later: 10.3 ± 0.9

## O=C(N[C@H]1CCOC[C@@H]1O)c1cc(Cc2ccc(C(=O)NC[C@@H]3CCCO3)c(F)c2)c2c(n1)CCO2 [Example 77, 1,5-anhydro-2,3-dideoxy-3-(((7-(3-fluoro-4-(((2S)-tetrahydrofuran-2-ylmethyl)carbamoyl)benzyl)-2,3-dihydrofuro[3,2-b]pyridin-5-yl)carbonyl)amino)-L-threo-pentitol]
[1]
  activity (%) at 10 μM: 108%
  EC50: 3.2 nM
Male SD rats; 1 mg/kg oral
  number of feces 2 hr later: 13.9 ± 1.5
Male SD rats; 3 mg/kg oral
  number of feces 2 hr later: 12.3 ± 1.6

## O=C(N[C@H]1CCOC[C@@H]1O)c1cc(Cc2ccc(C(=O)NC[C@@H]3CCCO3)c(F)c2)c2occc2n1 [Example 102, 1,5-anhydro-2,3-dideoxy-3-(((7-(3-fluoro-4-(((2S)-tetrahydrofuran-2-ylmethyl)carbamoyl)benzyl)furo[3,2-b]pyridin-5-yl)carbonyl)amino)-L-threo-pentitol]
[1]
  activity (%) at 10 μM: 107%
  EC50: 2.7 nM
Male SD rats; 1 mg/kg oral
  number of feces 2 hr later: 8.9 ± 1.3
Male SD rats; 3 mg/kg oral
  number of feces 2 hr later: 12.4 ± 0.9

## COCCNC(=O)c1ccc(Cc2cc(C(=O)N[C@H]3CCOC[C@@H]3O)nc3ccoc23)cc1F [Example 109, 1,5-anhydro-2,3-dideoxy-3-(((7-(3-fluoro-4-((2-methoxyethyl)carbamoyl)benzyl)furo[3,2-b]pyridin-5-yl)carbonyl)amino)-L-threo-pentitol]
[1]
  activity (%) at 10 μM: 107%
  EC50: 2.4 nM
